Values after ≈ are worked out from the molar mass of the structure shown. Structures can show the parent of a compound that is named as a salt. Where two headings read alike, the source gives them in different places.
What was measured:
[1] = tested on: Enterobacter cloacae 963; assay: MIC, twofold agar dilution method (standard laboratory strain); format: cell-based; conditions: Enterobacter cloacae 963, Gram -; 10^6 cfu/ml; 18 hrs at 37 °C
Method: (§1) Overnight cultures in Mueller-Hinton broth were suspended by buffered saline gelatin. One loopful of the bacterial suspension (10⁶ or 10⁸ colony-forming units/ml) was incubated onto the plates containing test compounds. The plates were incubated for 18 hrs at 37 °C. The MIC was defined by the lowest concentration of the drug that inhibited visible growth of bacteria.

[2] = tested on: Escherichia coli NIHJ JC-2; assay: as above; format: cell-based; conditions: NIHJJC2; Escherichia coli NIHJ JC-2, Gram -; 10^6 cfu/ml; 18 hrs at 37 °C
Method: as §1

[3] = tested on: Pseudomonas aeruginosa IFO 3445; assay: as above; format: cell-based; conditions: IFO3445; Pseudomonas aeruginosa IFO 3445, Gram -; 10^6 cfu/ml; 18 hrs at 37 °C
Method: as §1

[4] = tested on: Serratia marcescens IAM 1184; assay: as above; format: cell-based; conditions: IAM1184; Serratia marcescens IAM 1184, Gram -; 10^6 cfu/ml; 18 hrs at 37 °C
Method: as §1

[5] = tested on: Staphylococuss aureus FDA 209PJC-1; assay: as above; format: cell-based; conditions: Staphylococuss aureus FDA 209PJC-1, Gram +; 10^6 cfu/ml; 18 hrs at 37 °C
Method: as §1

[6] = tested on: Klebsiella pneumoniae PCI-602; assay: as above; format: cell-based
Method: Minimum inhibitory concentrations (MIC) of test compounds were determined by the twofold agar dilution method (Chemotherapy, 29(1), 76(1981)). Overnight cultures in Mueller-Hinton broth were suspended by buffered saline gelatin. One loopful of the bacterial suspension (10⁶ or 10⁸ colony-forming units/ml) was incubated onto the plates containing test compounds. The plates were incubated for 18 hrs at 37 °C. The MIC was defined by the lowest concentration of the drug that inhibited visible growth of bacteria.

[7] = tested on: Acinetobacter calcoaceticus HNR 904; assay: MIC, twofold agar dilution method (clinically isolated strain); format: cell-based; conditions: HNR904; Acinetobacter calcoaceticus HNR 904, Gram -; 10^6 cfu/ml; 18 hrs at 37 °C
Method: as §1

[8] = tested on: Acinetobacter calcoaceticus HNR 916; assay: as above; format: cell-based; conditions: HNR916; Acinetobacter calcoaceticus HNR 916, Gram -; 10^6 cfu/ml; 18 hrs at 37 °C
Method: as §1

[9] = tested on: Acinetobacter calcoaceticus HNR 939; assay: as above; format: cell-based; conditions: HNR939; Acinetobacter calcoaceticus HNR 939, Gram -; 10^6 cfu/ml; 18 hrs at 37 °C
Method: as §1

[10] = tested on: Enterobacter cloacae HNR 1939; assay: as above; format: cell-based; conditions: HNR1939; Enterobacter cloacae HNR 1939, Gram -; 10^6 cfu/ml; 18 hrs at 37 °C
Method: as §1

[11] = tested on: Enterobacter cloacae HNR 1941; assay: as above; format: cell-based; conditions: HNR1941; Enterobacter cloacae HNR 1941, Gram -; 10^6 cfu/ml; 18 hrs at 37 °C
Method: as §1

[12] = tested on: Enterobacter cloacae HNR 1946; assay: as above; format: cell-based; conditions: HNR1946; Enterobacter cloacae HNR 1946, Gram -; 10^6 cfu/ml; 18 hrs at 37 °C
Method: as §1

[13] = tested on: Enterococcus faecalis HPC 948; assay: as above; format: cell-based; conditions: HPC948; Enterococcus faecalis HPC 948, Gram +; 10^6 cfu/ml; 18 hrs at 37 °C
Method: as §1

[14] = tested on: Enterococcus faecalis HPC 975; assay: as above; format: cell-based; conditions: HPC975; Enterococcus faecalis HPC 975, Gram +; 10^6 cfu/ml; 18 hrs at 37 °C
Method: as §1

[15] = tested on: Enterococcus faecalis HPC 984; assay: as above; format: cell-based; conditions: HPC984; Enterococcus faecalis HPC 984, Gram +; 10^6 cfu/ml; 18 hrs at 37 °C
Method: as §1

[16] = tested on: Klebsiella pneumoniae HNR 828; assay: as above; format: cell-based; conditions: HNR828; Klebsiella pneumoniae HNR 828, Gram -; 10^6 cfu/ml; 18 hrs at 37 °C
Method: as §1

[17] = tested on: Klebsiella pneumoniae HNR 858; assay: as above; format: cell-based; conditions: HNR858; Klebsiella pneumoniae HNR 858, Gram -; 10^6 cfu/ml; 18 hrs at 37 °C
Method: as §1

[18] = tested on: Klebsiella pneumoniae HNR 869; assay: as above; format: cell-based; conditions: HNR869; Klebsiella pneumoniae HNR 869, Gram -; 10^6 cfu/ml; 18 hrs at 37 °C
Method: as §1

[19] = tested on: Pseudomonas aeruginosa HNR 1472; assay: as above; format: cell-based; conditions: HNR1472; Pseudomonas aeruginosa HNR 1472, Gram -; 10^6 cfu/ml; 18 hrs at 37 °C
Method: as §1

[20] = tested on: Pseudomonas aeruginosa HNR 1489; assay: as above; format: cell-based; conditions: HNR1489; Pseudomonas aeruginosa HNR 1489, Gram -; 10^6 cfu/ml; 18 hrs at 37 °C
Method: as §1

[21] = tested on: Pseudomonas aeruginosa HNR 1537; assay: as above; format: cell-based; conditions: HNR1537; Pseudomonas aeruginosa HNR 1537, Gram -; 10^6 cfu/ml; 18 hrs at 37 °C
Method: as §1

[22] = tested on: Serratia marcescens HNR 1544; assay: as above; format: cell-based; conditions: HNR1544; Serratia marcescens HNR 1544, Gram -; 10^6 cfu/ml; 18 hrs at 37 °C
Method: as §1

[23] = tested on: Serratia marcescens HNR 1767; assay: as above; format: cell-based; conditions: HNR1767; Serratia marcescens HNR 1767, Gram -; 10^6 cfu/ml; 18 hrs at 37 °C
Method: as §1

[24] = tested on: Serratia marcescens HNR 1792; assay: as above; format: cell-based; conditions: HNR1792; Serratia marcescens HNR 1792, Gram -; 10^6 cfu/ml; 18 hrs at 37 °C
Method: as §1

[25] = tested on: Staphylococcuss aureus HPC 292; assay: as above; format: cell-based; conditions: Staphylococcuss aureus HPC 292, Gram +; 10^6 cfu/ml; 18 hrs at 37 °C
Method: as §1

[26] = tested on: Staphylococcuss aureus HPC 308; assay: as above; format: cell-based; conditions: Staphylococcuss aureus HPC 308, Gram +; 10^6 cfu/ml; 18 hrs at 37 °C
Method: as §1

[27] = tested on: Staphylococcuss aureus HPC 527; assay: as above; format: cell-based; conditions: Staphylococcuss aureus HPC 527, Gram +; 10^6 cfu/ml; 18 hrs at 37 °C
Method: as §1

[28] = tested on: Male mice of ddY strain; assay: Convulsion inducing activity in combination with fenbufen; conditions: thirty minutes after fenbufen 100 mg/kg orally
Method: Male mice of ddY strain, 5 weeks old, were used. Fenbufen suspended in 0.5 % carboxymethylcellulose was administered orally at a dose of 100 mg/kg. After thirty minutes, test compounds suspended in 0.5 % carboxymethylcellulose were injected intraperitoneally (i.p.) at a dose of 100 mg/kg or 300 mg/kg.

[29] = PCI602, Klebsiella pneumoniae PCI-602, Gram -, 10^6 cfu/ml, 18 hrs at 37 °C, read-out: MIC

SMILES	MIC [1]	MIC [2]	MIC [3]	MIC [4]	MIC [5]	MIC [6, 29]	MIC [7]	MIC [8]	MIC [9]	MIC [10]	MIC [11]	MIC [12]	MIC [13]	MIC [14]	MIC [15]	MIC [16]	MIC [17]	MIC [18]	MIC [19]	MIC [20]	other results
NC1CCN(c2c(F)cc3c(=O)c(C(=O)O)c4n(c3c2F)CS4)C1 (stereo not drawn) [Ref. Drug E, 7-(3-amino-1-pyrrolidinyl)-6,8-difluoro-4-oxo-1H,4H-[1,3]thiazeto[3,2-a]quinoline-3-carboxylic acid]	0.1 µg/mL (≈ 0.283 µM)	0.1 µg/mL (≈ 0.283 µM)	0.2 µg/mL (≈ 0.566 µM)	0.2 µg/mL (≈ 0.566 µM)	0.1 µg/mL (≈ 0.283 µM)	0.05 µg/mL (≈ 0.142 µM)	> 100 µg/mL	0.39 µg/mL (≈ 1.1 µM)	> 100 µg/mL	0.78 µg/mL (≈ 2.21 µM)	> 100 µg/mL	1.56 µg/mL (≈ 4.41 µM)	50 µg/mL (≈ 142 µM)	> 100 µg/mL	0.78 µg/mL (≈ 2.21 µM)	50 µg/mL (≈ 142 µM)	0.78 µg/mL (≈ 2.21 µM)	50 µg/mL (≈ 142 µM)	> 100 µg/mL	0.39 µg/mL (≈ 1.1 µM)	MIC [21]: > 100 µg/mL; MIC [22]: 0.1 µg/mL (≈ 0.283 µM); MIC [23]: > 100 µg/mL; MIC [24]: > 100 µg/mL; MIC [25]: > 100 µg/mL; MIC [26]: 100 µg/mL (≈ 283 µM); MIC [27]: 0.2 µg/mL (≈ 0.566 µM)
CC1Sc2c(C(=O)O)c(=O)c3cc(F)c(N4CCNCC4)cc3n21 (stereo not drawn) [Ref. Drug B, 6-fluoro-1-methyl-4-oxo-7-(1-piperazinyl)-1H,4H-[1,3]thiazeto[3,2-a]quinoline-3-carboxylic acid]	0.05 µg/mL (≈ 0.143 µM)	0.025 µg/mL (≈ 0.0716 µM)	0.2 µg/mL (≈ 0.572 µM)	0.05 µg/mL (≈ 0.143 µM)	0.1 µg/mL (≈ 0.286 µM)	0.012 µg/mL (≈ 0.0343 µM)	> 100 µg/mL	0.78 µg/mL (≈ 2.23 µM)	6.25 µg/mL (≈ 17.9 µM)	0.2 µg/mL (≈ 0.572 µM)	12.5 µg/mL (≈ 35.8 µM)	0.39 µg/mL (≈ 1.12 µM)	6.25 µg/mL (≈ 17.9 µM)	50 µg/mL (≈ 143 µM)	0.78 µg/mL (≈ 2.23 µM)	1.56 µg/mL (≈ 4.46 µM)	0.2 µg/mL (≈ 0.572 µM)	0.78 µg/mL (≈ 2.23 µM)	6.25 µg/mL (≈ 17.9 µM)	0.1 µg/mL (≈ 0.286 µM)	MIC [21]: 6.25 µg/mL (≈ 17.9 µM); MIC [22]: 0.05 µg/mL (≈ 0.143 µM); MIC [23]: 50 µg/mL (≈ 143 µM); MIC [24]: 6.25 µg/mL (≈ 17.9 µM); MIC [25]: 50 µg/mL (≈ 143 µM); MIC [26]: 25 µg/mL (≈ 71.6 µM); MIC [27]: 0.39 µg/mL (≈ 1.12 µM)
O=C(O)c1cn(C2CC2)c2cc(N3CCNCC3)c(F)cc2c1=O [Ref. Drug A, ciprofloxacin hydrochloride]	–	–	–	–	–	–	–	–	–	–	–	–	–	–	–	–	–	–	–	–	MIC ([6]; Klebsiella pneumoniae, PCI602, 18 h): 0.012 µg/mL; Number of convulsion induced / Number of animals ([28]; 100 mg/kg (i.p.)): 4 / 6; Number of convulsion induced / Number of animals ([28]; 300 mg/kg (i.p.)): 6 / 6
CC1Sc2c(C(=O)O)c(=O)c3cc(F)c(N4CC[C@@H](N)C4)c(F)c3n21 (single isomer, unassigned) [Example 26]	0.05 µg/mL (≈ 0.136 µM)	0.025 µg/mL (≈ 0.068 µM)	0.1 µg/mL (≈ 0.272 µM)	0.05 µg/mL (≈ 0.136 µM)	0.05 µg/mL (≈ 0.136 µM)	0.012 µg/mL (≈ 0.0327 µM)	25 µg/mL (≈ 68 µM)	0.1 µg/mL (≈ 0.272 µM)	0.78 µg/mL (≈ 2.12 µM)	0.1 µg/mL (≈ 0.272 µM)	3.13 µg/mL (≈ 8.52 µM)	0.2 µg/mL (≈ 0.544 µM)	0.39 µg/mL (≈ 1.06 µM)	3.13 µg/mL (≈ 8.52 µM)	0.1 µg/mL (≈ 0.272 µM)	1.56 µg/mL (≈ 4.25 µM)	0.2 µg/mL (≈ 0.544 µM)	0.78 µg/mL (≈ 2.12 µM)	6.25 µg/mL (≈ 17 µM)	0.1 µg/mL (≈ 0.272 µM)	MIC [21]: 6.25 µg/mL (≈ 17 µM); MIC [22]: 0.05 µg/mL (≈ 0.136 µM); MIC [23]: 6.25 µg/mL (≈ 17 µM); MIC [24]: 1.56 µg/mL (≈ 4.25 µM); MIC [25]: 3.13 µg/mL (≈ 8.52 µM); MIC [26]: 0.78 µg/mL (≈ 2.12 µM); MIC [27]: 0.05 µg/mL (≈ 0.136 µM)
CC1Sc2c(C(=O)O)c(=O)c3cc(F)c(N4CC[C@@H](N)C4)c(Cl)c3n21 (single isomer, unassigned) [Example 17]	0.05 µg/mL (≈ 0.13 µM)	0.025 µg/mL (≈ 0.0651 µM)	0.1 µg/mL (≈ 0.261 µM)	0.05 µg/mL (≈ 0.13 µM)	0.025 µg/mL (≈ 0.0651 µM)	0.025 µg/mL (≈ 0.0651 µM)	12.5 µg/mL (≈ 32.6 µM)	0.1 µg/mL (≈ 0.261 µM)	0.78 µg/mL (≈ 2.03 µM)	0.1 µg/mL (≈ 0.261 µM)	1.56 µg/mL (≈ 4.06 µM)	0.2 µg/mL (≈ 0.521 µM)	0.39 µg/mL (≈ 1.02 µM)	1.56 µg/mL (≈ 4.06 µM)	0.1 µg/mL (≈ 0.261 µM)	1.56 µg/mL (≈ 4.06 µM)	0.2 µg/mL (≈ 0.521 µM)	0.78 µg/mL (≈ 2.03 µM)	3.13 µg/mL (≈ 8.15 µM)	0.2 µg/mL (≈ 0.521 µM)	MIC [21]: 6.25 µg/mL (≈ 16.3 µM); MIC [22]: 0.05 µg/mL (≈ 0.13 µM); MIC [23]: 6.25 µg/mL (≈ 16.3 µM); MIC [24]: 1.56 µg/mL (≈ 4.06 µM); MIC [25]: 1.56 µg/mL (≈ 4.06 µM); MIC [26]: 0.78 µg/mL (≈ 2.03 µM); MIC [27]: 0.05 µg/mL (≈ 0.13 µM)

Source: patent EP0465716A1, “Optically active thiazetoquino-line-3-carboxylic acid compound, method for preparation thereof, and a pharmaceutical composition comprising the same” (priority 1990, dated 1992)
